# Laboratory results from PMC3275370 (The Journal of Cell Biology, 2012).
# Tests used:
# VSV M protein = format: cell-based, vesicular stomatitis virus
# VSV-GFP (Indiana strain) = format: cell-based, vesicular stomatitis virus
# A/WSN/1933 = format: cell-based, influenza virus
# HBECs = assay: Measurements of cellular UMP, UDP and UTP levels by LC-MS/MS; format: cell-based, human; details: HBECs treated with compound
# NS1 = format: cell-based, influenza virus
# mRNA export block = format: cell-based
SMILES,inhibition of gene expression by M protein (VSV M protein),VSV replication (VSV-GFP (Indiana strain)),influenza virus replication (A/WSN/1933),UMP and UDP pools (HBECs),UTP levels (HBECs),reversal of NS1 inhibition of host gene expression (luciferase activity) (NS1),cytotoxicity (MDCK cells),NS1-mediated mRNA export block in absence of virus (mRNA export block),poly(A)+ RNA distribution in influenza virus-infected cells (mRNA export block),antiviral effect on VSV (VSV-GFP (Indiana strain)),antiviral effect on influenza virus (A/WSN/1933)
"O=C(O)c1cc(-c2ccc(Oc3ccccc3)cc2)nc2ccc(F)cc12 [Compound 1-14, 6-fluoro-2-(4-phenoxyphenyl)quinoline-4-carboxylic acid]",reverted,down-regulated,virus replication was inhibited,down-regulated to a lesser extent,reduced UTP levels,reverted,not cytotoxic,released,normal distribution of mRNA in the nucleus and in the cytoplasm,–,–
"CCOc1ccc(-c2cc(C(=O)O)c3cc(Cl)ccc3n2)cc1 [Compound 1, 6-chloro-2-(4-ethoxyphenyl)quinoline-4-carboxylic acid]",–,–,–,–,–,reverted the inhibition of host gene expression by NS1,–,–,normal distribution of mRNA in the nucleus and in the cytoplasm,–,–
"Cc1ccc(-c2cc(C(=O)O)c3cc(Cl)ccc3n2)cc1 [Compound 1-10, 6-chloro-2-p-tolylquinoline-4-carboxylic acid]",–,–,–,–,–,–,–,–,–,no antiviral effect,no antiviral effect
